Laboratory results taken from PMC4689404, “2-Benzazolyl-4-Piperazin-1-Ylsulfonylbenzenecarbohydroxamic Acids as Novel Selective Histone Deacetylase-6 Inhibitors with Antiproliferative Activity” (PLoS ONE, 2015).
Blank lines part the entries; values can stand above or below the molecule they belong to.

What was measured:
HCC4017 = assay: MTS viability assay; assay type: cell-based, human; conditions: for IC50: Homo sapiens, HCC4017, 96 h, Patient A cancer line, MTS, 4 days, read-out: Antiproliferative activity IC50, HCC4017; for Selectivity (HBEC-30KT vs HCC4017): Patient A
Protocol: (§1) Immortalized normal human bronchial epithelial cells (also provided by Dr. John D. Minna) were cultured in KSFM supplemented with pituitary extract and EGF. For viability assays, cells were plated on 96 well plates and grown overnight. Cells were then exposed to increasing doses of the indicated compounds for 4 days and their viability assayed using the Promega Cell Titer 96 AQueous One kit per the manufacturer’s protocol. All doses were tested in 4–8 replicates. IC50 values were calculated using the in-house software DIVISA.

HCC4018 = assay: MTS viability assay; assay type: cell-based, human; conditions: for IC50: Homo sapiens, 96 h, Patient B cancer line, MTS, 4 days, read-out: Antiproliferative activity IC50, HCC4018; for Selectivity (HBEC-34KT vs HCC4018): Patient B
Protocol: as §1

NCI/ADR-RES = assay: NCI 60 screen, five dose; assay type: cell-based; conditions: Homo sapiens, Ovarian Cancer, GI50 = molar concentration, read-out: Log10 GI50 (converted)
SK-MEL-2 = assay: NCI 60 screen, five dose; assay type: cell-based; conditions: Homo sapiens, Melanoma, GI50 = molar concentration, read-out: Log10 GI50 (converted)
OVCAR-4 = assay: NCI 60 screen, five dose; assay type: cell-based; conditions: Homo sapiens, Ovarian Cancer, GI50 = molar concentration, read-out: Log10 GI50 (converted)
Leukemia cell lines = assay: NCI 60 screen, five dose; assay type: cell-based, human; conditions: for GI50: Homo sapiens; for no. cell lines used for the assay/no inhibited by compound: figures in parenthesis
KM12 = assay: NCI 60 screen, five dose; assay type: cell-based; conditions: Homo sapiens, Colon Cancer, GI50 = molar concentration, read-out: Log10 GI50 (converted)
SK-MEL-28 = assay: NCI 60 screen, five dose; assay type: cell-based; conditions: Homo sapiens, Melanoma, GI50 = molar concentration, read-out: Log10 GI50 (converted)
[1] = tested on: Prostate Cancer cell lines; assay: NCI 60 screen, five dose; assay type: cell-based, human; conditions: for GI50: Homo sapiens; for no. cell lines used for the assay/no inhibited by compound: figures in parenthesis
MDA-MB-231/ATCC = assay: NCI 60 screen, five dose; assay type: cell-based; conditions: Homo sapiens, Breast Cancer, GI50 = molar concentration, read-out: Log10 GI50 (converted)
[2] = tested on: Ovarian cancer cell lines; assay: NCI 60 screen, five dose; assay type: cell-based, human; conditions: for GI50: Homo sapiens; for no. cell lines used for the assay/no inhibited by compound: figures in parenthesis
TK-10 = assay: NCI 60 screen, five dose; assay type: cell-based; conditions: Homo sapiens, Renal Cancer, GI50 = molar concentration, read-out: Log10 GI50 (converted)
HOP-62 = assay: NCI 60 screen, five dose; assay type: cell-based; conditions: Homo sapiens, Non-Small Cell Lung Cancer, GI50 = molar concentration, read-out: Log10 GI50 (converted)
OVCAR-8 = assay: NCI 60 screen, five dose; assay type: cell-based; conditions: Homo sapiens, Ovarian Cancer, GI50 = molar concentration, read-out: Log10 GI50 (converted)
NCI-H322M = assay: NCI 60 screen, five dose; assay type: cell-based; conditions: Homo sapiens, Non-Small Cell Lung Cancer, GI50 = molar concentration, read-out: Log10 GI50 (converted)
CAKI-1 = assay: NCI 60 screen, five dose; assay type: cell-based; conditions: Homo sapiens, Renal Cancer, GI50 = molar concentration, read-out: Log10 GI50 (converted)
SN12C = assay: NCI 60 screen, five dose; assay type: cell-based; conditions: Homo sapiens, Renal Cancer, GI50 = molar concentration, read-out: Log10 GI50 (converted)
UO-31 = assay: NCI 60 screen, five dose; assay type: cell-based; conditions: Homo sapiens, Renal Cancer, GI50 = molar concentration, read-out: Log10 GI50 (converted)
RXF 393 = assay: NCI 60 screen, five dose; assay type: cell-based; conditions: Homo sapiens, Renal Cancer, GI50 = molar concentration, read-out: Log10 GI50 (converted)
U251 = assay: NCI 60 screen, five dose; assay type: cell-based; conditions: Homo sapiens, U-251, CNS Cancer, GI50 = molar concentration, read-out: Log10 GI50 (converted)
786-0 = assay: NCI 60 screen, five dose; assay type: cell-based; conditions: Homo sapiens, Renal Cancer, GI50 = molar concentration, read-out: Log10 GI50 (converted)
[3] = tested on: 60 human tumor cell lines; assay: NCI 60 human tumor cell line screen; assay type: cell-based; conditions: for GI50: Homo sapiens, 60 cell, read-out: MID (average GI50 across the 60 cell lines); for average growth inhibition: single dose of 10 μm, 60 cell line panel
Text: To evaluate if the antiproliferative activity of the novel hydroxamic acid derived compounds was general across cancer types, selected compounds were submitted for testing in the tissue-specific panel of human tumor cell lines at the National Cancer Institute, Bethesda, USA. This screen utilizes 60 human tumor cell lines, representing leukemia, melanoma and cancers of the lung, colon, brain, ovary, kidney, prostate and breast. This cell line panel offers the advantage of having available microarray gene expression data across the 60 cell lines which can be used to determine the uniqueness of a new lead for which the molecular target(s) might not be known. The antitumor activity is presented for each cell line by three parameters, namely log10 GI50 value (GI50 = molar concentration of the compound that inhibits 50% net cell growth), log10 TG value (TGI = molar concentration of the compound leading to total inhibition of net cell growth), and log10 LC50 value (LC50 = molar concentration of the compound leading to 50% net cell death) accompanied by MID which refers to the average inhibitory value across the 60 cell lines.
In this assay, compounds 9c (NSC 747073) and 9d (NSC 747072) inhibited the proliferation of subsets of leukemia, colon, CNS, melanoma, and prostrate cancer cells to a higher extent than cells from other cancers (Fig 6A and 6B).

PC-3 = assay: NCI 60 screen, five dose; assay type: cell-based; conditions: Homo sapiens, Prostate Cancer, GI50 = molar concentration, read-out: Log10 GI50 (converted)
SF-295 = assay: NCI 60 screen, five dose; assay type: cell-based; conditions: Homo sapiens, CNS Cancer, GI50 = molar concentration, read-out: Log10 GI50 (converted)
COLO 205 = assay: NCI 60 screen, five dose; assay type: cell-based; conditions: Homo sapiens, Colon Cancer, GI50 = molar concentration, read-out: Log10 GI50 (converted)
NCI-H226 = assay: NCI 60 screen, five dose; assay type: cell-based; conditions: Homo sapiens, Non-Small Cell Lung Cancer, GI50 = molar concentration, read-out: Log10 GI50 (converted)
UACC-62 = assay: NCI 60 screen, five dose; assay type: cell-based; conditions: Homo sapiens, Melanoma, GI50 = molar concentration, read-out: Log10 GI50 (converted)
OVCAR-5 = assay: NCI 60 screen, five dose; assay type: cell-based; conditions: Homo sapiens, Ovarian Cancer, GI50 = molar concentration, read-out: Log10 GI50 (converted)
SNB-75 = assay: NCI 60 screen, five dose; assay type: cell-based; conditions: Homo sapiens, CNS Cancer, GI50 = molar concentration, read-out: Log10 GI50 (converted)
Melanoma cell lines = assay: NCI 60 screen, five dose; assay type: cell-based, human; conditions: for GI50: Homo sapiens; for no. cell lines used for the assay/no inhibited by compound: figures in parenthesis
SK-OV-3 = assay: NCI 60 screen, five dose; assay type: cell-based; conditions: Homo sapiens, Ovarian Cancer, GI50 = molar concentration, read-out: Log10 GI50 (converted)
M14 = assay: NCI 60 screen, five dose; assay type: cell-based; conditions: Homo sapiens, Melanoma, GI50 = molar concentration, read-out: Log10 GI50 (converted)
LOX IMVI = assay: NCI 60 screen, five dose; assay type: cell-based; conditions: Homo sapiens, Melanoma, GI50 = molar concentration, read-out: Log10 GI50 (converted)
HCC-2998 = assay: NCI 60 screen, five dose; assay type: cell-based; conditions: Homo sapiens, Colon Cancer, GI50 = molar concentration, read-out: Log10 GI50 (converted)

- IC50 (HCC4017): 1.49 µM
- IC50 (HCC4018): 6.1 µM
SMILES: Cn1c(N2CCN(S(=O)(=O)c3ccc(C(=O)NO)cc3)CC2)nc2ccccc21 [Compound 9b, 4-[4-(1-methylbenzimidazol-2-yl)piperazin-1-yl]sulfonylbenzenecarbohydroxamic acid]
- Selectivity (HBEC-30KT vs HCC4017) (HCC4017): > 6.71
- Selectivity (HBEC-34KT vs HCC4018) (HCC4018): > 1.64

- IC50 (HCC4017): 1.24 µM
- IC50 (HCC4018): 5.05 µM
SMILES: O=C(NO)c1ccc(S(=O)(=O)N2CCN(c3nc4ccccc4o3)CC2)cc1 [Compound 9c, 4-(4-Benzoxazol-2-yl-piperazin-1-sulfonyl)-N -hydroxy-benzamid]
- GI50 (NCI/ADR-RES): 21.9 µM
- GI50 (SK-MEL-2): 16.2 µM
- GI50 (OVCAR-4): 4.9 µM
- GI50 (Leukemia cell lines): 2.24 µM
- no. cell lines used for the assay/no inhibited by compound (Leukemia cell lines): 4/4
- GI50 (KM12): 5.13 µM
- GI50 (SK-MEL-28): 4.57 µM
- GI50 [1]: 4.89 µM
- no. cell lines used for the assay/no inhibited by compound [1]: 2/2
- GI50 (MDA-MB-231/ATCC): 13.2 µM
- GI50 [2]: 7.66 µM
- no. cell lines used for the assay/no inhibited by compound [2]: 2/5
- GI50 (TK-10): 7.94 µM
- GI50 (HOP-62): 12 µM
- GI50 (OVCAR-8): 3.24 µM
- GI50 (NCI-H322M): 14.5 µM
- GI50 (CAKI-1): 3.39 µM
- GI50 (SN12C): 11.7 µM
- GI50 (UO-31): 10.7 µM
- GI50 (RXF 393): 4.47 µM
- GI50 (U251): 6.46 µM
- GI50 (786-0): 23.4 µM
- GI50 ([3]; five dose assay): 6.61 µM
- average growth inhibition [3]: 50%
- Selectivity (HBEC-30KT vs HCC4017) (HCC4017): > 8.06
- Selectivity (HBEC-34KT vs HCC4018) (HCC4018): > 1.98
- GI50 (PC-3): 3.24 µM
- GI50 (SF-295): 3.09 µM
- GI50 (COLO 205): 1.7 µM
- GI50 (NCI-H226): 20.9 µM
- GI50 (UACC-62): 4.27 µM
- GI50 (OVCAR-5): 10.2 µM
- GI50 (SNB-75): 4.37 µM
- GI50 (Melanoma cell lines): 5.62 µM
- no. cell lines used for the assay/no inhibited by compound (Melanoma cell lines): 6/8
- GI50 (SK-OV-3): 14.8 µM
- GI50 (M14): 5.89 µM
- GI50 (LOX IMVI): 10.7 µM
- GI50 (HCC-2998): 17.4 µM

- IC50 (HCC4017): 1.63 µM
- IC50 (HCC4018): 4 µM
SMILES: O=C(NO)c1ccc(S(=O)(=O)N2CCN(c3nc4ccccc4s3)CC2)cc1 [Compound 9d, 4-(4-Benzothiazol-2-yl-piperazin-1-sulfonyl)-N -hydroxy-benzamid]
- GI50 (NCI/ADR-RES): 6.61 µM
- GI50 (SK-MEL-2): 6.31 µM
- GI50 (OVCAR-4): 3.8 µM
- GI50 (Leukemia cell lines): 1.77 µM
- no. cell lines used for the assay/no inhibited by compound (Leukemia cell lines): 5/5
- GI50 (KM12): 2.14 µM
- GI50 (SK-MEL-28): 1.58 µM
- GI50 [1]: 2.48 µM
- no. cell lines used for the assay/no inhibited by compound [1]: 2/2
- GI50 (MDA-MB-231/ATCC): 5.01 µM
- GI50 [2]: 4.01 µM
- no. cell lines used for the assay/no inhibited by compound [2]: 3/3
- GI50 (TK-10): 3.63 µM
- GI50 (HOP-62): 3.8 µM
- GI50 (OVCAR-8): 1.7 µM
- GI50 (NCI-H322M): 5.62 µM
- GI50 (CAKI-1): 2.34 µM
- GI50 (SN12C): 10.5 µM
- GI50 (UO-31): 4.37 µM
- GI50 (RXF 393): 2 µM
- GI50 (U251): 2.75 µM
- GI50 (786-0): 9.12 µM
- GI50 ([3]; five dose assay): 3.16 µM
- more potent overall by a factor, compared to 9c ([3]; MID, five dose assay): 2
- average growth inhibition [3]: 62%
- Selectivity (HBEC-30KT vs HCC4017) (HCC4017): 3.29
- Selectivity (HBEC-34KT vs HCC4018) (HCC4018): 2.06
- GI50 (PC-3): 2.04 µM
- GI50 (SF-295): 1.86 µM
- GI50 (COLO 205): 3.02 µM
- GI50 (NCI-H226): 10 µM
- GI50 (UACC-62): 1.7 µM
- GI50 (OVCAR-5): 7.76 µM
- GI50 (SNB-75): 1.74 µM
- GI50 (Melanoma cell lines): 2.66 µM
- no. cell lines used for the assay/no inhibited by compound (Melanoma cell lines): 5/8
- GI50 (SK-OV-3): 7.76 µM
- GI50 (M14): 1.62 µM
- GI50 (LOX IMVI): 2.51 µM
- GI50 (HCC-2998): 2.14 µM
